Test results as given in article PMC10053710, “Influence of Lipidation Pattern of the KR12 Fragment of Peptide LL-37 on Its Antibacterial and Hemolytic Activities” (International Journal of Molecular Sciences, 2023).
In brackets after ≈: the same amount, converted by molar mass. Where a SMILES comes first, the peptide text is derived from it. The star is where a group is joined. Octanoyl = CCCCCCCC(=O)*

Columns and labels:
[1] = tested on: Pseudomonas aeruginosa ATCC 9027; format: cell-based; conditions: ATCC 9027, 18 h
Experimental: (§1) Tests of the antibacterial activity were carried out as we just described. Briefly, for assays, the following strains of ESKAPE bacteria were chosen: Acinetobacter baumannii ATCC BAA-1605, Enterococcus faecium ATCC 700221, Klebsiella aerogenes ATCC 13048 (formerly Enterobacter aerogenes), Klebsiella pneumoniae ATCC 700603, and Pseudomonas aeruginosa ATCC 9027. Moreover, the reference strains of Staphylococcus aureus were used: S. aureus ATCC 25923, S. aureus ATCC 6538, S. aureus ATCC 33591 (MRSA), S. aureus ATCC 9144, and S. aureus ATCC 12598. Before experiments, all the strains were stored at −80 °C in Roti®-Store cryo vials (Carl Roth GmbH, Karlsruhe, Germany). To evaluate the activity of the compounds, bacteria were transferred into fresh Mueller–Hinton medium (Becton Dickinson, Warszawa, Poland) and incubated for 24 h at 37 °C. In the next step, bacterial inoculums were seeded on Mueller–Hinton agar plates (BioMaxima SA, Lublin, Poland) and incubated again for 24 h. The MIC values were determined using the broth microdilution method according to the Clinical and Laboratory Standards Institute Protocol. The initial inoculums of bacteria (0.5 × 10^5 colony forming units (CFU)/mL) prepared in Mueller–Hinton broth were exposed to the ranging concentrations of peptides (1–512 µg/mL). The experiments were conducted on 96-well microtiter plates, with a final volume of 100 µL. The inoculum densities were checked spectrophotometrically (Multiskan™ GO Microplate Spectrophotometer, Thermo Scientific, Waltham, MA, USA) at 600 nm. The results were read after incubation for 18 h at 37 °C. The MIC values were the lowest concentration at which a visible growth of microorganisms was inhibited. All experiments were conducted in triplicate. Moreover, positive (growth) and negative (sterility) controls were included.

[2] = tested on: Klebsiella pneumoniae ATCC 700603; format: cell-based; conditions: ATCC 700603, 18 h
Experimental: as §1

[3] = tested on: Enterococcus faecium ATCC 700221; format: cell-based; conditions: ATCC 700221, 18 h
Experimental: as §1

[4] = tested on: Klebsiella aerogenes ATCC 13048; format: cell-based; conditions: ATCC 13048, 18 h
Experimental: as §1

[5] = tested on: S. aureus ATCC 25923; format: cell-based, Staphylococcus aureus; conditions: ATCC 25923, 18 h
Experimental: as §1

[6] = tested on: S. aureus ATCC 9144; format: cell-based, Staphylococcus aureus; conditions: ATCC 9144, 18 h
Experimental: as §1

[7] = tested on: S. aureus ATCC 33591 (MRSA); format: cell-based, Staphylococcus aureus; conditions: ATCC 33591, 18 h
Experimental: as §1

[8] = tested on: S. aureus ATCC 12598; format: cell-based, Staphylococcus aureus; conditions: ATCC 12598, 18 h
Experimental: as §1

[9] = tested on: S. aureus ATCC 6538; format: cell-based, Staphylococcus aureus; conditions: ATCC 6538, 18 h
Experimental: as §1

[10] = 18 h
[11] = tested on: human red blood cells (hRBCs); test: Hemolysis assay; conditions: 4% (v/v) erythrocytes in PBS, peptides 1–512 µg/mL, 1 h at 37 °C, hemoglobin at 540 nm, 100% = 1% Triton-X 100; ≥ means less than 5% hemolysis up to 512 µg/mL

| Compound | MIC P. aeruginosa [1] [µg/mL] | MIC K. pneumoniae [2] [µg/mL] | MIC E. faecium [3] [µg/mL] | MIC K. aerogenes [4] [µg/mL] | MIC S. aureus 25923 [5] [µg/mL] | MIC S. aureus 9144 [6] [µg/mL] | MIC S. aureus 33591 [7] [µg/mL] | MIC S. aureus 12598 [8] [µg/mL] | MIC S. aureus 6538 [9] [µg/mL] | MIC A. baumannii [10] [µg/mL] | MHC5 (minimum hemolytic concentration causing 5% hemolysis of hRBCs) [11] [µg/mL] |
| --- | --- | --- | --- | --- | --- | --- | --- | --- | --- | --- | --- |
| CCCCCCCC(=O)N[C@@H](CCCCN)C(=O)N[C@@H](CCCNC(=N)N)C(=O)N[C@H](C(=O)N[C@H](C(=O)N[C@@H](CCC(N)=O)C(=O)N[C@@H](CCCNC(=N)N)C(=O)N[C@H](C(=O)N[C@@H](CCCCN)C(=O)N[C@@H](CC(=O)O)C(=O)N[C@@H](Cc1ccccc1)C(=O)N[C@@H](CC(C)C)C(=O)N[C@@H](CCCNC(=N)N)C(N)=O)[C@@H](C)CC)C(C)C)[C@@H](C)CC [II, C8^α-KR12-NH2] (Octanoyl-KRIVQRIKDFLR-NH2) | 16 (≈ 9.43 µM) | 8 (≈ 4.71 µM) | 4 (≈ 2.36 µM) | 4 (≈ 2.36 µM) | 4 (≈ 2.36 µM) | 4 (≈ 2.36 µM) | 4 (≈ 2.36 µM) | 4 (≈ 2.36 µM) | 2 (≈ 1.18 µM) | 8 (≈ 4.71 µM) | 64 |
| CCCCCCCC(=O)NCCCC[C@H](N)C(=O)N[C@@H](CCCNC(=N)N)C(=O)N[C@H](C(=O)N[C@H](C(=O)N[C@@H](CCC(N)=O)C(=O)N[C@@H](CCCNC(=N)N)C(=O)N[C@H](C(=O)N[C@@H](CCCCN)C(=O)N[C@@H](CC(=O)O)C(=O)N[C@@H](Cc1ccccc1)C(=O)N[C@@H](CC(C)C)C(=O)N[C@@H](CCCNC(=N)N)C(N)=O)[C@@H](C)CC)C(C)C)[C@@H](C)CC [III, C8^ε-KR12-NH2] (H-K(Octanoyl)RIVQRIKDFLR-NH2) | 64 (≈ 37.7 µM) | 32 (≈ 18.9 µM) | 4 (≈ 2.36 µM) | 64 (≈ 37.7 µM) | 32 (≈ 18.9 µM) | 32 (≈ 18.9 µM) | 64 (≈ 37.7 µM) | 64 (≈ 37.7 µM) | 8 (≈ 4.71 µM) | 32 (≈ 18.9 µM) | – |
| CCCCCCCC(=O)N[C@@H](CCCCN)C(=O)N[C@@H](CCCCN)C(=O)N[C@@H](CCCNC(=N)N)C(=O)N[C@H](C(=O)N[C@H](C(=O)N[C@@H](CCC(N)=O)C(=O)N[C@@H](CCCNC(=N)N)C(=O)N[C@H](C(=O)N[C@@H](CCCCN)C(=O)N[C@@H](CC(=O)O)C(=O)N[C@@H](Cc1ccccc1)C(=O)N[C@@H](CC(C)C)C(=O)N[C@@H](CCCNC(=N)N)C(N)=O)[C@@H](C)CC)C(C)C)[C@@H](C)CC [IV, C8^α-Lys-KR12-NH2] (Octanoyl-KKRIVQRIKDFLR-NH2) | 32 (≈ 17.5 µM) | 16 (≈ 8.77 µM) | 4 (≈ 2.19 µM) | 32 (≈ 17.5 µM) | 128 (≈ 70.1 µM) | 16 (≈ 8.77 µM) | 64 (≈ 35.1 µM) | 32 (≈ 17.5 µM) | 8 (≈ 4.38 µM) | 8 (≈ 4.38 µM) | 256 |
| CCCCCCCC(=O)NCCCC[C@H](NC(=O)CCCCCCC)C(=O)N[C@@H](CCCNC(=N)N)C(=O)N[C@H](C(=O)N[C@H](C(=O)N[C@@H](CCC(N)=O)C(=O)N[C@@H](CCCNC(=N)N)C(=O)N[C@H](C(=O)N[C@@H](CCCCN)C(=O)N[C@@H](CC(=O)O)C(=O)N[C@@H](Cc1ccccc1)C(=O)N[C@@H](CC(C)C)C(=O)N[C@@H](CCCNC(=N)N)C(N)=O)[C@@H](C)CC)C(C)C)[C@@H](C)CC [IX, C8^α,C8^ε-KR12-NH2] (Octanoyl-K(Octanoyl)RIVQRIKDFLR-NH2) | >512 | >512 | 16 (≈ 8.78 µM) | 512 (≈ 281 µM) | 512 (≈ 281 µM) | 256 (≈ 140 µM) | 256 (≈ 140 µM) | 256 (≈ 140 µM) | – | 512 (≈ 281 µM) | – |
| CCCCCCCC(=O)NCCCC[C@H](N)C(=O)N[C@@H](CCCCN)C(=O)N[C@@H](CCCNC(=N)N)C(=O)N[C@H](C(=O)N[C@H](C(=O)N[C@@H](CCC(N)=O)C(=O)N[C@@H](CCCNC(=N)N)C(=O)N[C@H](C(=O)N[C@@H](CCCCN)C(=O)N[C@@H](CC(=O)O)C(=O)N[C@@H](Cc1ccccc1)C(=O)N[C@@H](CC(C)C)C(=O)N[C@@H](CCCNC(=N)N)C(N)=O)[C@@H](C)CC)C(C)C)[C@@H](C)CC [V, C8^ε-Lys-KR12-NH2] (H-K(Octanoyl)KRIVQRIKDFLR-NH2) | 16 (≈ 8.77 µM) | 16 (≈ 8.77 µM) | 4 (≈ 2.19 µM) | 64 (≈ 35.1 µM) | 64 (≈ 35.1 µM) | 32 (≈ 17.5 µM) | 64 (≈ 35.1 µM) | 32 (≈ 17.5 µM) | 8 (≈ 4.38 µM) | 32 (≈ 17.5 µM) | 256 |
| CCCCCCCC(=O)NCCCC[C@H](NC(=O)[C@H](CCCNC(=N)N)NC(=O)[C@H](CC(C)C)NC(=O)[C@H](Cc1ccccc1)NC(=O)[C@H](CC(=O)O)NC(=O)[C@H](CCCCN)NC(=O)[C@@H](NC(=O)[C@H](CCCNC(=N)N)NC(=O)[C@H](CCC(N)=O)NC(=O)[C@@H](NC(=O)[C@@H](NC(=O)[C@H](CCCNC(=N)N)NC(=O)[C@@H](N)CCCCN)[C@@H](C)CC)C(C)C)[C@@H](C)CC)C(N)=O [VI, KR12-Lys^ε(C8)-NH2] (H-KRIVQRIKDFLRK(Octanoyl)-NH2) | 32 (≈ 17.5 µM) | 32 (≈ 17.5 µM) | 4 (≈ 2.19 µM) | 64 (≈ 35.1 µM) | 64 (≈ 35.1 µM) | 32 (≈ 17.5 µM) | 32 (≈ 17.5 µM) | 32 (≈ 17.5 µM) | 64 (≈ 35.1 µM) | 16 (≈ 8.77 µM) | – |
| CCCCCCCC(=O)NCCCC[C@H](NC(=O)[C@H](CC(C)C)NC(=O)[C@H](Cc1ccccc1)NC(=O)[C@H](CC(=O)O)NC(=O)[C@H](CCCCN)NC(=O)[C@@H](NC(=O)[C@H](CCCNC(=N)N)NC(=O)[C@H](CCC(N)=O)NC(=O)[C@@H](NC(=O)[C@@H](NC(=O)[C@H](CCCNC(=N)N)NC(=O)[C@@H](N)CCCCN)[C@@H](C)CC)C(C)C)[C@@H](C)CC)C(N)=O [VII, [Lys^ε(C8)]^12KR12-NH2] (H-KRIVQRIKDFLK(Octanoyl)-NH2) | 64 (≈ 38.3 µM) | 128 (≈ 76.7 µM) | 16 (≈ 9.59 µM) | 64 (≈ 38.3 µM) | 128 (≈ 76.7 µM) | 512 (≈ 307 µM) | 512 (≈ 307 µM) | 512 (≈ 307 µM) | 64 (≈ 38.3 µM) | 32 (≈ 19.2 µM) | – |
